Counter-ions that a name gives are not always drawn. Like-named read-outs stand apart in the source and are kept apart here.
How the values were obtained:
[1] = Hepatocyte stability assay, mouse; format: in vitro ADME; conditions: mouse, hepatocytes; for hepatocyte CLint at 10 μM: Hepatocyte stability Clint; for half-life at 10 μM: Hepatocyte stability T½
How it was run: (§1)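 Cryopreserved hepatocytes (viability >70%), 0.5×10^6 cells/mL in Leibovitz buffer, preincubated 10 min at 37° C, then 10 μM compound (0.1% DMSO) in duplicate; sampled 0-60 min, acetonitrile quench, LC-MS/MS. CLint and half-life from ln % remaining vs time; buffer-only incubation as negative control.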

[2] = tested on: NRF2 (nuclear factor erythroid 2-related factor 2); test: NRF2 +/-GSH activation assay (DiscoverX PathHunter NRF2 translocation kit, U2OS cells); format: cell-based; conditions: for NRF2 activation +GSH Emax / NRF2 activation −GSH Emax: normalised to DMF high control
How it was run: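 U2OS PathHunter eXpress cells, 24 h post-plating, treated with compound ±GSH (+GSH arm: 30 min compound–GSH pre-incubation, 6 mM working GSH), then 6 h at 37 °C. NRF2 nuclear translocation read by enzyme-fragment-complementation chemiluminescence; % activation normalised to DMF high and untreated low controls.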

[3] = tested on: IL-6 cytokine output from THP-1s; test: THP-1 AlphaLISA IL-6 cytokine inhibition assay; format: cell-based; conditions: Homo sapiens
How it was run: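 THP-1 cells differentiated with PMA for 72 h, then pre-incubated with compound 30 min, stimulated with LPS 24 h, then Nigericin 1 h, all at 37° C. Supernatant IL-6 measured by AlphaLISA. Percentage inhibition normalized to +/− LPS plate controls.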

[4] = Hepatocyte stability assay, human; format: in vitro ADME; conditions: human, hepatocytes; for hepatocyte CLint at 10 μM: Hepatocyte stability Clint; for half-life at 10 μM: Hepatocyte stability T½
How it was run: as §1

[5] = tested on: IL-1β cytokine output from THP-1s; test: THP-1 AlphaLISA IL-1β cytokine inhibition assay; format: cell-based; conditions: for IC50: Homo sapiens, THP-1, differentiated THP-1 cells
How it was run: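 THP-1 cells differentiated with PMA for 72 h, pre-incubated with compound 30 min, then LPS-primed 24 h and Nigericin-stimulated 1 h (37° C./5% CO2). Supernatant IL-1β measured by AlphaLISA; percentage inhibition normalised to +LPS (high) and −LPS (low) plate controls.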

[6] = +GSH, 30 minute compound-GSH pre-incubation, read-out: NRF2 activation +GSH EC50
[7] = −GSH, U2OS PathHunter cells, 6 hours compound treatment, read-out: NRF2 activation −GSH EC50
[8] = THP-1, differentiated THP-1 cells, LPS then nigericin
[9] = differentiated THP-1 cells, LPS then nigericin

| SMILES | hepatocyte CLint at 10 μM [1] [µL/min/1e6 cells] | half-life at 10 μM [1] [min] | EC50 [2, 6] [µM] | NRF2 activation +GSH Emax ([2]; +GSH) [%] | EC50 [2, 7] [µM] | NRF2 activation −GSH Emax ([2]; −GSH) [%] | IC50 [3, 8] [µM] | hepatocyte CLint at 10 μM [4] [µL/min/1e6 cells] | half-life at 10 μM [4] [min] | IC50 ([5]; LPS then nigericin) [µM] | IL-1β lowering, result in words ([5]; THP-1 IL-1β assay) | IC50 [3, 9] [µM] | IC50 ([3]; THP-1, differentiated THP-1 cells, data from repeated experiments) [µM] | IC50 ([5]; data from repeated experiments) [µM] |
| --- | --- | --- | --- | --- | --- | --- | --- | --- | --- | --- | --- | --- | --- | --- |
| C=C(Cc1nc(C(F)(F)c2ccc(Cl)cc2)no1)C(=O)O [Example 74, 2-((3-((4-chlorophenyl)difluoromethyl)-1,2,4-oxadiazol-5-yl)methyl)acrylic acid] | 31 | 47 | 44.4 | 65 | 24.4 | 174 | 9 | < 3 | > 430 | 6.4 | – | – | – | – |
| C=C(Cc1nc(Cc2ccc(CCC)cc2)no1)C(=O)O [Example 70, 2-((3-(4-propylbenzyl)-1,2,4-oxadiazol-5-yl)methyl)acrylic acid] | 58 | 26 | 15.6 | 147 | 13.4 | 188 | 9.4 | 13 | 117 | 25.3 | – | – | – | – |
| C=C(Cc1nc(C2(c3ccc(F)cc3)CC2)no1)C(=O)O [Example 44, 2-((3-(1-(4-fluorophenyl)cyclopropyl)-1,2,4-oxadiazol-5-yl)methyl)acrylic acid] | 37 | 44 | > 100 | 23 | 28.7 | 65 | 29.9 | 10 | 144 | > 100 | not effective | – | – | – |
| C=C(Cc1ccc(CCCCCCCC)cn1)C(=O)O [Example 105] | > 460 | < 3 | 5.3 | 166 | 5.3 | 257 | – | > 460 | < 3 | 4.2 | – | 2 | – | – |
| C=C(Cc1nc(C2(c3ccc(C(F)(F)F)cc3)CC2)co1)C(=O)O [Example 103, 2-((4-(1-(4-(trifluoromethyl)phenyl)cyclopropyl)oxazol-2-yl)methyl)acrylic acid] | 94 | 16 | 42.7 | 190 | 40.5 | 306 | 19.7 | 43 | 31 | 14.4 | – | – | – | – |
| C=C(Cc1nc(CCCCCCCCCCC)no1)C(=O)O [Example 56, 2-((3-undecyl-1,2,4-oxadiazol-5-yl)methyl)acrylic acid] | > 460 | < 3 | 3.1 | 110 | 2.8 | 175 | 3.3 | > 460 | < 3 | 3.4 | – | – | – | – |
| C=C(Cc1nc(Cc2ccc(CCCC)cc2)no1)C(=O)O [Example 20, 2-((3-(4-butylbenzyl)-1,2,4-oxadiazol-5-yl)methyl)acrylic acid] | 427 | 4 | 3 | 146 | 2.9 | 206 | 2.7 | 70 | 24 | 14.7 | – | – | – | – |
| C=C(Cc1nc(-c2ccc(CCCCC(F)(F)F)cc2)no1)C(=O)O [Example 75, 2-((3-(4-(5,5,5-trifluoropentyl)phenyl)-1,2,4-oxadiazol-5-yl)methyl)acrylic acid] | 480 | 4 | 7.1 | 188 | 4.8 | 263 | 3.1 | 80 | 15 | 13.7 | – | – | – | – |
| C=C(Cc1cc(CCCCCCCC)on1)C(=O)O [Example 102, 2-((5-octylisoxazol-3-yl)methyl)acrylic acid] | > 460 | < 3 | 9.5 | 230 | 7.2 | 342 | – | > 460 | < 3 | 7.4 | – | 5.2 | – | – |
| C=C(Cc1noc(C(F)(F)c2ccc(Br)cc2)n1)C(=O)O [Example 85, 2-((5-((4-bromophenyl)difluoromethyl)-1,2,4-oxadiazol-3-yl)methyl)acrylic acid] | 131 | 13 | 34.7 | 208 | 21.6 | 282 | – | 20 | 77 | 13.6 | – | 18.5 | – | – |
| C=C(Cc1nc(C2CC3(C2)CC2(CCC2)C3)no1)C(=O)O [Example 62, 2-((3-(dispiro[3.1.3^6.1^4]decan-2-yl)-1,2,4-oxadiazol-5-yl)methyl)acrylic acid] | 119 | 10 | 27.4 | 149 | 20 | 229 | 21.5 | 57 | 26 | 17.9 | – | – | – | – |
| C=C(Cc1cc(CCCCCCCC)ccn1)C(=O)O [Example 104, 2-((4-octylpyridin-2-yl)methyl)acrylic acid trifluoroacetic acid salt] | > 460 | < 3 | 8.2 | 216 | 7.5 | 293 | 2.1 | 370 | 3 | 11.6 | – | – | – | – |
| C=C(Cc1nc(C2(c3ccc(C(F)(F)F)cc3)CC2)no1)C(=O)O [Example 22, 2-((3-(1-(4-(trifluoromethyl)phenyl)cyclopropyl)-1,2,4-oxadiazol-5-yl)methyl)acrylic acid] | 42 | 41 | 60.2 | 62 | 48.7 | 69 | – | 20 | 84 | 10.9 | – | – | 43.5 | 8.7 |
| C=C(Cc1nc(Cc2ccc(OCCCC)cc2)no1)C(=O)O [Example 51, 2-((3-(4-butoxybenzyl)-1,2,4-oxadiazol-5-yl)methyl)acrylic acid] | 278 | 5 | 6.7 | 181 | 4.6 | 269 | 5.3 | 24 | 55 | 53.4 | – | – | – | – |

Reference: patent publication US12617762B2, “Carboxy derivatives with antiinflamatory properties” (Sitryx Therapeutics Limited, priority 2019, dated 2026)
